Assay results as given in US20040030161A1, “Recovery and purification of anhydro sugar alcohols from a vapor stream” (priority 2002, published 2004).

Format: physicochemical
Method: The basis for this process is illustrated for isosorbide in FIG. 1, where the upper curve represents the solubility of isosorbide in water (as percent by weight isosorbide) on the x-axis vs. temperature on the y-axis. The lower curve represents the composition of the condensate (as percent by weight isosorbide) when the condensation is conducted at a pressure of about 14 mm Hg. […] The condensate is a highly concentrated solution of isosorbide and contains only a small fraction as water. Thus, by conducting the condensation under these conditions, most of the isosorbide from, for example, a 20-30 weight percent isosorbide aqueous vapor stream is recovered, leaving most of the water in the vapor phase. The amount of isosorbide left in the vapor is negligibly small because of the very low vapor pressure of isosorbide, on the order of only about 0.001 mm Hg, at a condensation temperature of about 45° C.

O[C@@H]1CO[C@H]2[C@@H]1OC[C@@H]2O [isosorbide, 1,4:3,6-dianhydrosorbitol]
solubility of isosorbide in water (percent by weight isosorbide): ~100%
